Read-outs that look alike come from different tables or passages of the source. Positions of bridges follow the written chain, without caps; N, C: chain ends. Non-standard residues stand in square brackets, D forms with d. Residues, ends and D or L forms follow the SMILES beside them. 1Nal = N[C@@H](Cc1cccc2ccccc12)C(=O)O
Tests used:
Assay in all cases: cell-based
[1] = biological target: hNav1.7 (Homo sapiens, UniProt Q15858); format: cell-based; details: IonWorks Quattro, use-dependent block, read-out: IWQ Use Nav1.7
Chain of hNav1.7 (Q15858 whole entry, looked up): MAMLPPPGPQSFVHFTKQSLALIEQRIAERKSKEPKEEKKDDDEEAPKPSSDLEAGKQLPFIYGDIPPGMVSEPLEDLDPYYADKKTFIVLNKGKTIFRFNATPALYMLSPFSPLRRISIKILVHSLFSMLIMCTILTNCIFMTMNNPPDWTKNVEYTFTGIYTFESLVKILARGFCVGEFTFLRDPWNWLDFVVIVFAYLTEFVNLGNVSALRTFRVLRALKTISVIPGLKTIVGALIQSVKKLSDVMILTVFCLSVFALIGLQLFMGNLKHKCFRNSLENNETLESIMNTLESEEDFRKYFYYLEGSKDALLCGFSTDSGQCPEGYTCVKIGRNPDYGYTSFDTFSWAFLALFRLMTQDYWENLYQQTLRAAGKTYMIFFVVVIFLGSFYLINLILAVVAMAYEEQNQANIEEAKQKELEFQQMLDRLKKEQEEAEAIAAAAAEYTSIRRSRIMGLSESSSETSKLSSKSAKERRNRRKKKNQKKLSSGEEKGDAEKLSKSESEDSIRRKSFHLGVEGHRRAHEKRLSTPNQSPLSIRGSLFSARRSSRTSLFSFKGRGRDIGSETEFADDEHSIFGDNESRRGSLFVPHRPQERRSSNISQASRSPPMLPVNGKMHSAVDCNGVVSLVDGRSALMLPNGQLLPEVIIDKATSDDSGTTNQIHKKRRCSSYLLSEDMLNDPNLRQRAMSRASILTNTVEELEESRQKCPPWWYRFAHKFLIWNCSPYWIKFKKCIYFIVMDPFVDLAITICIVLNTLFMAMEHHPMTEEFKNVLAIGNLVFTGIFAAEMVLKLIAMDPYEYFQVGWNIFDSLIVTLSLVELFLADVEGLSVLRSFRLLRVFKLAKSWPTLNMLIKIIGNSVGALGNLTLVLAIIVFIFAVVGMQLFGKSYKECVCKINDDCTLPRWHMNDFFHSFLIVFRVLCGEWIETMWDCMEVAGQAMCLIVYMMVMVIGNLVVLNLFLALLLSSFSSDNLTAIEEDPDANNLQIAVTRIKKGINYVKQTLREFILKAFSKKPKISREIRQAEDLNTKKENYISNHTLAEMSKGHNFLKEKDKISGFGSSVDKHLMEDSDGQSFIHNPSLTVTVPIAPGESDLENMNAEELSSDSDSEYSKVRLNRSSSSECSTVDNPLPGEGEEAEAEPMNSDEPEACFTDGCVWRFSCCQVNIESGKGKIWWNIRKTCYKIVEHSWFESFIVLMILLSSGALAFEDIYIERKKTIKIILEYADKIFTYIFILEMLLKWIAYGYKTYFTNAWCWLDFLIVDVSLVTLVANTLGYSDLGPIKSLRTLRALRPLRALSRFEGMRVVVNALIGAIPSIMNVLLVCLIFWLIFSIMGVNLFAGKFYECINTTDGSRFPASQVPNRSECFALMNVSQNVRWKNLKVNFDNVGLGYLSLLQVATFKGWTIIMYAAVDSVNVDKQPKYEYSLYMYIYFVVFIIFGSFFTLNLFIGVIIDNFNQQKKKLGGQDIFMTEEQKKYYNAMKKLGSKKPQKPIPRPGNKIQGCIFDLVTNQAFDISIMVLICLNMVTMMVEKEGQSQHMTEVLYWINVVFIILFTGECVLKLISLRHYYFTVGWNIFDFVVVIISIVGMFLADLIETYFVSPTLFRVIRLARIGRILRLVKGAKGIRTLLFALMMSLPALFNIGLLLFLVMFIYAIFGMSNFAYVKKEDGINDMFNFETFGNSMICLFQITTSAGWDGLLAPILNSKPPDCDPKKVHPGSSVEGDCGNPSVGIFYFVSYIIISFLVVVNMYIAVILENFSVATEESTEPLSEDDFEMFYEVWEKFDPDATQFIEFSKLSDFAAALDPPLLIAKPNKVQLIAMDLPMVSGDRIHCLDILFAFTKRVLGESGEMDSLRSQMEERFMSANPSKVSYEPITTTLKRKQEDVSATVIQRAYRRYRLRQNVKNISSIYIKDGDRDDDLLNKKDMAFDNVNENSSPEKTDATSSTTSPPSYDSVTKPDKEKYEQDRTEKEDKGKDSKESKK

[2] = biological target: hNav1.3 (Homo sapiens, UniProt Q9NY46); details: IonWorks Quattro, use-dependent block, read-out: IWQ Use Nav1.3
Chain of hNav1.3 (Q9NY46 whole entry, looked up): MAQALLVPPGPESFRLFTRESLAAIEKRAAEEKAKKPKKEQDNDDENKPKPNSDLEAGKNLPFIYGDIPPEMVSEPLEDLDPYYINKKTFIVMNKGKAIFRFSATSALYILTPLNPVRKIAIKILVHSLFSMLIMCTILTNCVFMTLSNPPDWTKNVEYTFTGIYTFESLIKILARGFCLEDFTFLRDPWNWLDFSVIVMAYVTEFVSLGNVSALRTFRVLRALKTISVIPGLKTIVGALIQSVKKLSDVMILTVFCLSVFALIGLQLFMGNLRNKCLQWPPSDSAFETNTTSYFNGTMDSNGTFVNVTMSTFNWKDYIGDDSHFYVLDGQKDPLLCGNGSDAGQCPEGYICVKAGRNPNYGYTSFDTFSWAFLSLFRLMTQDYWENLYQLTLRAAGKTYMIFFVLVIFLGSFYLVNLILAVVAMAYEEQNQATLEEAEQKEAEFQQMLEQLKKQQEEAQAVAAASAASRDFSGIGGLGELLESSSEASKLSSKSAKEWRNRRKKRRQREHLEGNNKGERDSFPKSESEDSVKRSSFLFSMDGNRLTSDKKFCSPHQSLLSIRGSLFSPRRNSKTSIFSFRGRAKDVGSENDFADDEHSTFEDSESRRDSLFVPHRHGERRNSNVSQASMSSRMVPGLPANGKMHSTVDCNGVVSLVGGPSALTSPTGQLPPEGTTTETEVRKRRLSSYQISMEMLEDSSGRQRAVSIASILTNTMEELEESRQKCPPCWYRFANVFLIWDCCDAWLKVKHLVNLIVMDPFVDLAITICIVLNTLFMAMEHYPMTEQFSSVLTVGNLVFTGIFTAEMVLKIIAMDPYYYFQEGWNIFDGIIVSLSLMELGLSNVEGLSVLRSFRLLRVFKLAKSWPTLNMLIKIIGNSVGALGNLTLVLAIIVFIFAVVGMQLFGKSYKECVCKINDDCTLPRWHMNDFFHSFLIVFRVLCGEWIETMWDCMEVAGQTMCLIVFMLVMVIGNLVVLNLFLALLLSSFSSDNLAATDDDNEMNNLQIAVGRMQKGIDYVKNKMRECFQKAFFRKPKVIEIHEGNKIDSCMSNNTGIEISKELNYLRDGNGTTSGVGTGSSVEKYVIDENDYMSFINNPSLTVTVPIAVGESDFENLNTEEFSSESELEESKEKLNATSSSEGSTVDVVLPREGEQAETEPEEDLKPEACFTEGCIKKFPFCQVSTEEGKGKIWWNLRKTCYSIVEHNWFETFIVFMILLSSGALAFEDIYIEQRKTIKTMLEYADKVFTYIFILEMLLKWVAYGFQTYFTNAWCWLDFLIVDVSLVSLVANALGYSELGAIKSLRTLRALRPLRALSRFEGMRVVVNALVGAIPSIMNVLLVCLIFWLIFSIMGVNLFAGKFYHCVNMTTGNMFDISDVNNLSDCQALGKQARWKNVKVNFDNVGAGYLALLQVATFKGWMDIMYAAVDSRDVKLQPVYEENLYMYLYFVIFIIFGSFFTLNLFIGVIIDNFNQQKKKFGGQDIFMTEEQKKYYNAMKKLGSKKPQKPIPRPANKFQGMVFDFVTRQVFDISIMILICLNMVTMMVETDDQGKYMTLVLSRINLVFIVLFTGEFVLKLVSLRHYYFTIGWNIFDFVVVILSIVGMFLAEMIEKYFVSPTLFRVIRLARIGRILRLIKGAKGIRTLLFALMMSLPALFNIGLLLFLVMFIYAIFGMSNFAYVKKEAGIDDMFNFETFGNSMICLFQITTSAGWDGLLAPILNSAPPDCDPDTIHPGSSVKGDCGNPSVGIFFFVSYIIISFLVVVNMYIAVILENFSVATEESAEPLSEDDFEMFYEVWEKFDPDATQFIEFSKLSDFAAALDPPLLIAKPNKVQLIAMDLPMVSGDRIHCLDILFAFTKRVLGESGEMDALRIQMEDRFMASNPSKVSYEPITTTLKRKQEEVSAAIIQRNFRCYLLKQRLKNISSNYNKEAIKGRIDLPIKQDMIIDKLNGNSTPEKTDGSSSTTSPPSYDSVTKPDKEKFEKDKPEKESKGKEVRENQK

[3] = biological target: hNav1.5 (Homo sapiens, UniProt Q14524); details: IonWorks Quattro, use-dependent block, read-out: IWQ Use Nav1.5

SMILES	IC50 ([1]; hNav1.7) [nM]	IC50 ([2]; hNav1.3) [nM]	IC50 ([3]; hNav1.5) [nM]	IC50 [1] [nM]	IC50 [2] [nM]	IC50 [3] [nM]
CC[C@H](C)[C@@H]1NC(=O)[C@@H]2CSSC[C@@H]3NC(=O)[C@H](C(C)C)NC(=O)[C@H](CC(C)C)NC(=O)[C@H](CC(N)=O)NC(=O)[C@@H]4CCCN4C(=O)[C@H](CCCNC(=N)N)NC(=O)[C@H](CSSC[C@H](NC(=O)[C@@H](N)CC(=O)O)C(=O)N[C@@H](CC(C)C)C(=O)NCC(=O)N[C@@H](Cc4ccccc4)C(=O)N[C@@H](CCSC)C(=O)N[C@@H](CCCNC(=N)N)C(=O)N[C@@H](CCCCN)C(=O)N2)NC(=O)[C@H](CSSC[C@@H](C(=O)N[C@@H](CCCCN)C(=O)N[C@@H](Cc2cccc4ccccc24)C(=O)N[C@@H](Cc2c[nH]c4ccccc24)C(=O)N[C@@H](Cc2ccccc2)C(N)=O)NC(=O)[C@H](Cc2c[nH]c4ccccc24)NC(=O)[C@H](CCCCN)NC(=O)[C@H](Cc2c[nH]cn2)NC(=O)[C@H]([C@@H](C)O)NC(=O)[C@H](CCCNC(=N)N)NC(=O)[C@H](CO)NC3=O)NC(=O)[C@H](CCCCN)NC(=O)[C@H](CC(=O)O)NC(=O)[C@H](CC(N)=O)NC(=O)[C@H](CC(=O)O)NC(=O)[C@@H]2CCCN2C1=O [compound 460] (H-DCLGFMRKCIPDNDKCCRPNLVCSRTHKWCK[1Nal]WF-NH2; disulfide 2-17, 9-23, 16-30)	80	30	> 5000	–	–	–
CC[C@H](C)[C@@H]1NC(=O)[C@@H]2CSSC[C@@H]3NC(=O)[C@H](C(C)C)NC(=O)[C@H](CC(C)C)NC(=O)[C@H](CC(N)=O)NC(=O)[C@@H]4CCCN4C(=O)[C@H](CCCNC(=N)N)NC(=O)[C@H](CSSC[C@H](NC(=O)[C@@H](N)CC(=O)O)C(=O)N[C@@H](CC(C)C)C(=O)NCC(=O)N[C@@H](Cc4ccccc4)C(=O)N[C@@H](Cc4c[nH]c5ccccc45)C(=O)N[C@@H](CCCNC(=N)N)C(=O)N[C@@H](CCCCN)C(=O)N2)NC(=O)[C@H](CSSC[C@@H](C(=O)N[C@@H](CCCCN)C(=O)N[C@@H](Cc2ccc(O)cc2)C(=O)N[C@@H](Cc2cccc4ccccc24)C(=O)N[C@@H](Cc2ccccc2)C(N)=O)NC(=O)[C@H](Cc2c[nH]c4ccccc24)NC(=O)[C@H](CCCCN)NC(=O)[C@H](Cc2c[nH]cn2)NC(=O)[C@H]([C@@H](C)O)NC(=O)[C@H](CCCNC(=N)N)NC(=O)[C@H](CO)NC3=O)NC(=O)[C@H](CCCCN)NC(=O)[C@H](CC(=O)O)NC(=O)[C@H](CC(N)=O)NC(=O)[C@H](CC(=O)O)NC(=O)[C@@H]2CCCN2C1=O [compound 461] (H-DCLGFWRKCIPDNDKCCRPNLVCSRTHKWCKY[1Nal]F-NH2; disulfide 2-17, 9-23, 16-30)	100	50	> 5000	–	–	–
CSCC[C@@H]1NC(=O)[C@H](Cc2ccccc2)NC(=O)CNC(=O)[C@H](CC(C)C)NC(=O)[C@@H](NC(=O)[C@@H](N)CC(=O)O)CSSC[C@@H]2NC(=O)[C@@H]3CSSC[C@@H](C(=O)N[C@@H](CCCCN)C(=O)N[C@@H](Cc4ccc(O)cc4)C(=O)N[C@@H](Cc4cccc5ccccc45)C(=O)N[C@@H](Cc4ccccc4)C(N)=O)NC(=O)[C@H](Cc4c[nH]c5ccccc45)NC(=O)[C@H](CCCCN)NC(=O)[C@H](Cc4c[nH]cn4)NC(=O)[C@H]([C@@H](C)O)NC(=O)[C@H](CCCNC(=N)N)NC(=O)[C@H](CO)NC(=O)[C@H](CSSC[C@H](NC(=O)[C@H](CCCCN)NC(=O)[C@H](CCCNC(=N)N)NC1=O)C(=O)N[C@@H](Cc1cccc4ccccc14)C(=O)N1CCC[C@H]1C(=O)N[C@@H](CC(=O)O)C(=O)N[C@@H](CC(N)=O)C(=O)N[C@@H](CC(=O)O)C(=O)N[C@@H](CCCCN)C(=O)N3)NC(=O)[C@H](C(C)C)NC(=O)[C@H](CC(C)C)NC(=O)[C@H](CC(N)=O)NC(=O)[C@@H]1CCCN1C(=O)[C@H](CCCNC(=N)N)NC2=O [compound 462]	110	70	> 5000	–	–	–
CC[C@H](C)[C@@H]1NC(=O)[C@@H]2CSSC[C@@H]3NC(=O)[C@H](C(C)C)NC(=O)[C@H](CC(C)C)NC(=O)[C@H](CC(N)=O)NC(=O)[C@@H]4CCCN4C(=O)[C@H](CCCNC(=N)N)NC(=O)[C@H](CSSC[C@H](NC(=O)[C@@H](N)CC(=O)O)C(=O)N[C@@H](CC(C)C)C(=O)NCC(=O)N[C@@H](Cc4ccccc4)C(=O)N[C@@H](CCSC)C(=O)N[C@@H](CCCNC(=N)N)C(=O)N[C@@H](CCCCN)C(=O)N2)NC(=O)[C@H](CSSC[C@@H](C(=O)N[C@@H](CCCCN)C(=O)N[C@@H](Cc2ccc(O)cc2)C(=O)N[C@@H](Cc2cccc4ccccc24)C(=O)N[C@@H](Cc2ccccc2)C(N)=O)NC(=O)[C@H](Cc2c[nH]c4ccccc24)NC(=O)[C@H](CCCCN)NC(=O)[C@H](Cc2c[nH]cn2)NC(=O)[C@H](CC(C)C)NC(=O)[C@H](CCCNC(=N)N)NC(=O)[C@H](CO)NC3=O)NC(=O)[C@H](CCCCN)NC(=O)[C@H](CC(=O)O)NC(=O)[C@H](CC(N)=O)NC(=O)[C@H](CC(=O)O)NC(=O)[C@@H]2CCCN2C1=O [compound 463] (H-DCLGFMRKCIPDNDKCCRPNLVCSRLHKWCKY[1Nal]F-NH2; disulfide 2-17, 9-23, 16-30)	130	180	> 5000	–	–	–
CSCC[C@@H]1NC(=O)[C@H](Cc2ccccc2)NC(=O)CNC(=O)[C@H](CC(C)C)NC(=O)[C@@H](NC(=O)[C@H](CC(=O)O)NC(=O)[C@@H](N)Cc2c[nH]c3ccccc23)CSSC[C@@H]2NC(=O)[C@@H]3CSSC[C@@H](C(=O)N[C@@H](CCCCN)C(=O)N[C@@H](Cc4ccc(O)cc4)C(=O)N[C@H](C(=O)N[C@@H](Cc4ccccc4)C(N)=O)C(C)C)NC(=O)[C@H](Cc4c[nH]c5ccccc45)NC(=O)[C@H](CCCCN)NC(=O)[C@H](Cc4c[nH]cn4)NC(=O)[C@H]([C@@H](C)O)NC(=O)[C@H](CCCNC(=N)N)NC(=O)[C@H](CO)NC(=O)[C@H](CSSC[C@H](NC(=O)[C@H](CCCCN)NC(=O)[C@H](CCCNC(=N)N)NC1=O)C(=O)N[C@@H](Cc1cccc4ccccc14)C(=O)N1CCC[C@H]1C(=O)N[C@@H](CC(=O)O)C(=O)N[C@@H](CC(N)=O)C(=O)N[C@@H](CC(=O)O)C(=O)N[C@@H](CCCCN)C(=O)N3)NC(=O)[C@H](C(C)C)NC(=O)[C@H](CC(C)C)NC(=O)[C@H](CC(N)=O)NC(=O)[C@@H]1CCCN1C(=O)[C@H](CCCNC(=N)N)NC2=O [compound 464]	200	220	> 5000	–	–	–
CC[C@H](C)[C@@H]1NC(=O)[C@@H]2CSSC[C@@H]3NC(=O)[C@H](C(C)C)NC(=O)[C@H](CC(C)C)NC(=O)[C@H](CC(N)=O)NC(=O)[C@@H]4CCCN4C(=O)[C@H](CCCNC(=N)N)NC(=O)[C@H](CSSC[C@H](NC(=O)[C@@H](N)CC(=O)O)C(=O)N[C@@H](CC(C)C)C(=O)NCC(=O)N[C@@H](Cc4ccccc4)C(=O)N[C@@H](Cc4ccccc4)C(=O)N[C@@H](CCCNC(=N)N)C(=O)N[C@@H](CCCCN)C(=O)N2)NC(=O)[C@H](CSSC[C@@H](C(=O)N[C@@H](CCCCN)C(=O)N[C@@H](Cc2ccc(O)cc2)C(=O)N[C@H](C(=O)N[C@@H](Cc2cccc4ccccc24)C(N)=O)C(C)C)NC(=O)[C@H](Cc2c[nH]c4ccccc24)NC(=O)[C@H](CCCCN)NC(=O)[C@H](Cc2c[nH]cn2)NC(=O)[C@H]([C@@H](C)O)NC(=O)[C@H](CCCNC(=N)N)NC(=O)[C@H](CO)NC3=O)NC(=O)[C@H](CCCCN)NC(=O)[C@H](CC(=O)O)NC(=O)[C@H](CC(N)=O)NC(=O)[C@H](CC(=O)O)NC(=O)[C@@H]2CCCN2C1=O [compound 561] (H-DCLGFFRKCIPDNDKCCRPNLVCSRTHKWCKYV[1Nal]-NH2; disulfide 2-17, 9-23, 16-30)	–	–	–	11	7	2200

— patent US9340590B2 (priority 2011, dated 2016)
